Source: patent US20220401391A1, “METHODS AND COMPOSITIONS FOR TREATING PAIN” (Apkarian Technologies LLC, priority 2019, published 2022)
Entries after “also recorded” stand apart in the source; their conditions may differ.

Experiments:
[1] = test system: subacute back pain (SBP) participants; test: Double-blind randomized trial of LDP+NPX vs PLC+NPX in subacute back pain; phone NRS pain ratings; assay type: in vivo, human; details: for One-week average pain ratings, pain intensity (0-10), Mean ± SEM: phone NRS 0-10 scale
Text: The main outcome measure was a Numerical Rating Scale (NRS),^19 where “0” corresponds to no pain and “10” indicates worst possible pain. On this scale, participants provided ratings of their current pain up to three times a day during study participation (6 months), via a smartphone app (phone NRS).
Treatment-related percentage residual pain was computed relative to the average phone-NRS score from the week preceding start of treatment, for every subject and every day, and then averaged across subjects for each treatment type (FIG. 2A). Over the treatment period, a rapid decrease in back pain intensity was observed that, in the NoTx group, stabilizes (with large fluctuations) at around 80% residual pain, while in the LDP+NPX and PLC+NPX groups residual pain continues to decrease for the duration of treatment, reaching a residual pain of about 50%. […] Remarkably in all three groups, the observed pain relief persisted after cessation of treatment, over the next 12 weeks.
This 24-week double-blind parallel randomized controlled trial was conducted at Northwestern University (Chicago, USA). Protocol and informed consent form were approved by Northwestern University IRB as well as NIDCR/NIH. All enrolled participants provided written informed consent. Safety and trial oversight were monitored by an independent data safety monitoring board and a clinical research organization, with NIDCR/NIH oversight. The trial was registered on ClinicalTrials.gov, under registry NCT01951105.
• Eligible subjects first underwent a brain imaging session and, using predefined brain-derived parameters, were stratified into high and low-risk subgroups for transitioning to CBP. Those in the low-risk category, who had 60% or higher probability of recovering naturally, entered the NoTx arm; the rest, who had less than 60% probability of recovering naturally, were randomized between a placebo-control arm, and a pharmacological treatment arm. A flexible dose escalation procedure was used and both researchers and participants were blinded to treatment type. Study medications were tapered off at week 12, and participants continued to be evaluated for another 12 weeks. At final visit, participants underwent a second brain scan.
The design was setup to evaluate safety, efficacy and gender dependence of the combination of carbidopa/levodopa (12.5 mg/50 mg-25 mg/100 mg-50 mg/200 mg, dose escalation based on response) plus naproxen 250 mg (LDP+NPX) administered three times a day, compared to placebo plus naproxen 250 mg (PLC+NPX) administered three times a day.
Treatment with carbidopa/levodopa was titrated up to 12.5 mg/50 mg three times/day over one week and then continued at that level for 4 weeks. If by the end of the initial 4-week period the participant “responded” [had >20% decrease in pain intensity from the average of all phone NRS ratings collected at baseline (between visit 1 and visit 3) to the average of all phone NRS ratings during those 5 weeks], the participant was maintained on that dose for the duration of the treatment period (12 weeks total). If there was no response, the carbidopa/levodopa dose was increased to 25 mg/100 mg three times/day for the following 4 weeks, at which time the pain status was re-evaluated (based on the average of all phone NRS rating during those four weeks, against baseline average). Again, if a response occurred, that dose was maintained in a blinded manner for the following 4 weeks of treatment; if not, further dose-titration carbidopa/levodopa occurred to 50 mg/200 mg three times/day for the final 4 weeks. When a participant experienced an adverse event at higher doses, the participant was given the next lower dose that s/he was able to tolerate and then maintained on that dose for the remainder of the 12-week dosing period. Naproxen dose (250 mg three times/day) remained constant for all participants throughout the study, except it was not given during the tapering down at the end of the study. […]

[2] = human, in vivo
Procedure: The study consisted of eight visits spread over ˜28 weeks, which included an initial screening/monitoring period (˜2 weeks), followed by a treatment period (12 weeks) and a post-treatment observational period (12 weeks). Safety and adverse events were assessed at each clinical visit, including vital signs. At each visit, researchers reminded participants to take their medication according to instructions. Safety was also assessed through blood screenings at baseline, while blood pressure, pulse and temperature were assessed at all study visits.
Adverse events (AEs) that occurred during treatment and those that occurred after treatment were differentiated. However, to account for potential late onset AEs or those related to withdrawal of medication, AEs occurring during a certain window after treatment were considered to be “during treatment”.
Analyses were done using MATLAB 2016a, JMP Pro version 13.2 (SAS Institute, Cary, N.C.) and SPSS version 25. Safety analyses included all participants who received at least one dose of the study drug.

Substance	Response rates across response criteria (80%-20% residual pain), in words ([1]; 3 and 6 months, by gender)	One-week average pain ratings, pain intensity (0-10), Mean ± SEM ([1]; 3 months (end of treatment))	One-week average pain ratings, pain intensity (0-10), Mean ± SEM ([1]; 6 months (3 months after end of treatment))	One-week average pain ratings, pain intensity (0-10), Mean ± SEM ([1]; BL (baseline))	Efficacy by gender (residual pain, in words) ([1]; females vs males, residual pain at six months)	Males showing at least 80% improvement ([1]; males) [%]	Residual pain reached over duration of treatment ([1]; relative to average phone-NRS of week preceding treatment, 12-week treatment)	Safety / tolerability in words [2]
placebo+naproxen [PLC+NPX]	less effective yielding similar response rates in males and females; also recorded: less effective and similar among males and females	2.4 ± 0.4	2.2 ± 0.4	5.1 ± 0.3	more effective than LDP+NPX in males	38	about 50%	–
levodopa/carbidopa [LDP]	–	–	–	–	–	–	–	No adverse effects specifically linked to LDP use were observed
